Experimental data from patent publication US11331299B2, “Medicinal use of serrulatane diterpenes” (The University of Sydney, priority 2016, dated 2022).
Like-named read-outs stand apart in the source and are kept apart here.

Tested on: 280 human cancer cell lines
Assay: OncoPanel cell proliferation assay (10-day)
Assay type: cell-based
Conditions: Homo sapiens; for IC50: read-out: Cell Count IC50; for EC50: read-out: Cell Count EC50; for GI50: read-out: Cell Count GI50
[1] = SJRH30, SJRH30, Soft Tissue - Sarcoma
[2] = SJSA-1, SJSA1, Soft Tissue - Osteosarcoma
[3] = SK-LMS-1, SK-LMS-1, Soft Tissue - Sarcoma
[4] = SK-MEL3, SK-MEL-3, Skin (Melanoma)
[5] = SK-MEL-1, SK-MEL-1, Skin (Melanoma)
[6] = SK-MEL-28, SK-MEL-28, Skin (Melanoma)
[7] = SK-OV-3, SKOV3, Female GU - Ovary
[8] = SK-UT-1, SK-UT-1, Soft Tissue - Sarcoma
[9] = SW579, SW579, Endocrine - Thyroid
[10] = SW684, SW684, Soft Tissue - Sarcoma

CC(C)=CCC[C@@H]1C(O)Oc2c(C)cc(O)c3c2[C@H]1CC[C@H]3C (some centres unmarked) [Compound 2, 5,18-epoxyserrulat-14-en-8,18-diol] showed an IC50 (SCaBER, Bladder) of 11.5 µM, an EC50 (SH-4, Skin (Melanoma)) of 9.6 µM and a GI50 (SH-4, Skin (Melanoma)) of 11.8 µM. It also gave an IC50 (SH-4, Skin (Melanoma)) of 11.9 µM, an EC50 (SHP77, SHP-77, Lung - SCLC) of 8.01 µM and a GI50 (SHP77, SHP-77, Lung - SCLC) of 7.9 µM. It also gave an IC50 (SHP77, SHP-77, Lung - SCLC) of 8.01 µM, an EC50 [1] of 5.09 µM and a GI50 [1] of 5.07 µM. The IC50 [1] was 5.1 µM, the EC50 [2] was 7.11 µM and the GI50 [2] was 7.02 µM. The IC50 [2] was 7.11 µM, the EC50 (SK-BR-3, SK-BR-3, Breast) was 12.2 µM and the GI50 (SK-BR-3, SK-BR-3, Breast) was 11.9 µM. The IC50 (SK-BR-3, SK-BR-3, Breast) was 12.2 µM, the EC50 [3] was 6.79 µM and the GI50 [3] was 11.2 µM. It also gave an IC50 [3] of 11.3 µM, an EC50 [4] of 22 µM and a GI50 [4] of 20.8 µM. It also gave an EC50 [5] of 15.7 µM, a GI50 [5] of 14.7 µM and an IC50 [5] of 15.7 µM. The EC50 [6] was 9.46 µM, the GI50 [6] was 9.85 µM and the IC50 [6] was 9.89 µM. The EC50 (SK-MES-1, SKMES1, Lung - NSCLC) was 7.8 µM, the GI50 (SK-MES-1, SKMES1, Lung - NSCLC) was 7.67 µM and the IC50 (SK-MES-1, SKMES1, Lung - NSCLC) was 7.8 µM. The EC50 (SK-N-AS, CNS - Neuroblastoma) was 6.23 µM, the GI50 (SK-N-AS, CNS - Neuroblastoma) was 7.7 µM and the IC50 (SK-N-AS, CNS - Neuroblastoma) was 7.92 µM. The EC50 (SK-N-DZ, CNS - Neuroblastoma) was greater than 30 µM, the GI50 (SK-N-DZ, CNS - Neuroblastoma) was greater than 30 µM and the IC50 (SK-N-DZ, CNS - Neuroblastoma) was greater than 30 µM. The EC50 (SK-N-FI, CNS - Neuroblastoma) was greater than 30 µM, the GI50 (SK-N-FI, CNS - Neuroblastoma) was greater than 30 µM and the IC50 (SK-N-FI, CNS - Neuroblastoma) was greater than 30 µM. The EC50 [7] was 15.4 µM, the GI50 [7] was 15.2 µM and the IC50 [7] was 15.4 µM. The EC50 (SK-PN-DW, Stomach) was 10.8 µM, the GI50 (SK-PN-DW, Stomach) was 10.9 µM and the IC50 (SK-PN-DW, Stomach) was 10.9 µM. For the same compound, the EC50 [8] was 11.7 µM, the GI50 [8] was 11.6 µM and the IC50 [8] was 11.7 µM. It also gave an EC50 (SKO-007, SKO-007, Myeloma) of 1.59 µM, a GI50 (SKO-007, SKO-007, Myeloma) of 1.42 µM and an IC50 (SKO-007, SKO-007, Myeloma) of 1.59 µM. For the same compound, the EC50 (SNB-19, SNB-19, CNS - Glioma) was 17.3 µM, the GI50 (SNB-19, SNB-19, CNS - Glioma) was 16.8 µM and the IC50 (SNB-19, SNB-19, CNS - Glioma) was 17.3 µM. The EC50 (SNU1, SNU-1, Stomach) was 8.51 µM, the GI50 (SNU1, SNU-1, Stomach) was 9.41 µM and the IC50 (SNU1, SNU-1, Stomach) was 9.42 µM. The EC50 (SNU-5, SNU-5, Stomach) was greater than 30 µM, the GI50 (SNU-5, SNU-5, Stomach) was greater than 30 µM and the IC50 (SNU-5, SNU-5, Stomach) was greater than 30 µM. For the same compound, the EC50 (SNU-16, SNU-16, Stomach) was 9.96 µM, the GI50 (SNU-16, SNU-16, Stomach) was 9.91 µM and the IC50 (SNU-16, SNU-16, Stomach) was 9.96 µM. For the same compound, the EC50 (SNU-423, SNU-423, Liver) was 5.29 µM, the GI50 (SNU-423, SNU-423, Liver) was 5.26 µM and the IC50 (SNU-423, SNU-423, Liver) was 5.31 µM. The EC50 (SR, Lymphoma) was 10.7 µM, the GI50 (SR, Lymphoma) was 10.7 µM and the IC50 (SR, Lymphoma) was 10.7 µM. For the same compound, the EC50 (ST486, ST486, Lymphoma) was 3.87 µM, the GI50 (ST486, ST486, Lymphoma) was 3.86 µM and the IC50 (ST486, ST486, Lymphoma) was 3.87 µM. For the same compound, the EC50 (SU-DHL10, SU-DHL-10, Lymphoma) was 9.92 µM, the GI50 (SU-DHL10, SU-DHL-10, Lymphoma) was 9.9 µM and the IC50 (SU-DHL10, SU-DHL-10, Lymphoma) was 9.92 µM. For the same compound, the EC50 (SU-DHL-4, SU-DHL-4, Lymphoma) was 4.2 µM, the GI50 (SU-DHL-4, SU-DHL-4, Lymphoma) was 4.2 µM and the IC50 (SU-DHL-4, SU-DHL-4, Lymphoma) was 4.2 µM. The EC50 (SU-DHL-5, SU-DHL-5, Lymphoma) was 4.28 µM, the GI50 (SU-DHL-5, SU-DHL-5, Lymphoma) was 4.27 µM and the IC50 (SU-DHL-5, SU-DHL-5, Lymphoma) was 4.28 µM. For the same compound, the EC50 (SU-DHL-8, SU-DHL-8, Lymphoma) was 7.4 µM, the GI50 (SU-DHL-8, SU-DHL-8, Lymphoma) was 7.4 µM and the IC50 (SU-DHL-8, SU-DHL-8, Lymphoma) was 7.4 µM. For the same compound, the EC50 (SU.86.86, SU.86.86, Pancreas) was 13.1 µM, the GI50 (SU.86.86, SU.86.86, Pancreas) was greater than 30 µM and the IC50 (SU.86.86, SU.86.86, Pancreas) was greater than 30 µM. The EC50 (SUP-T1, SUP-T1, Lymphoma) was 12.1 µM, the GI50 (SUP-T1, SUP-T1, Lymphoma) was 12 µM and the IC50 (SUP-T1, SUP-T1, Lymphoma) was 12.1 µM. It also gave an EC50 (SW48, SW48, Colon) of 8.73 µM, a GI50 (SW48, SW48, Colon) of 8.65 µM and an IC50 (SW48, SW48, Colon) of 8.73 µM. The EC50 [9] was 12.3 µM, the GI50 [9] was 12.2 µM and the IC50 [9] was 12.3 µM. For the same compound, the EC50 [10] was greater than 30 µM, the GI50 [10] was greater than 30 µM and the IC50 [10] was greater than 30 µM. The EC50 (SW837, SW837, Colon) was greater than 30 µM and the GI50 (SW837, SW837, Colon) was greater than 30 µM.
